# Patent US9643999B2 (Bristol-Myers Squibb Company, priority 2012, dated 2017)
# Where two headings read alike, the source gives them in different places.
# How the values were obtained:
# HCV genotype 1a replicon = assay: HCV replicon luciferase reporter assay, genotype 1a (LE_1a); type: cell-based; conditions: Hepatitis C virus, 72 h, HUH-7 cells, genotype 1a H77 replicon, 3 days incubation, Renilla luciferase
# Excerpt: (§1) An HCV replicon whole cell system was established as described by Lohmann V, Korner F, Koch J, Herian U, Theilmann L, Bartenschlager R., Science 285(5424):110-3 (1999) and modified to introduce a luciferase reporter, as first described by Krieger et al (Krieger N, Lohmann V, and Bartenschlager R, J. Virol. 75(10):4614-4624 (2001)). cDNA encoding a humanized form of the Renilla luciferase gene and a linker sequence fused directly to the 3′-end of the luciferase gene were introduced into the replicon construct using an Asc1 restriction site located in core, directly upstream of the neomycin marker gene. The adaptive mutation at position 1179 (serine to isoleucine) was also introduced (Blight K J, Kolykhalov, A A, Rice, C M, Science 290(5498):1972-1974). A stable cell line constitutively expressing this HCV replicon construct was generated by first linearizing plasmid DNAs with ScaI. RNA transcripts were synthesized in vitro using the T7 MegaScript transcription kit (Ambion, Austin, Tex.) according to manufacturer's directions. In vitro transcripts of the cDNA were transfected into the human hepatoma cell line, HUH-7. […] Resulting cell lines were characterized for positive and negative strand RNA production and protein production over time.
# A stable HCV replicon luciferase reporter cell line representing the genotype 1a H77 strain (Yanagi M, Purcell R H, Emerson S U, et al. Transcripts from a single full-length cDNA clone of hepatitis C virus are infectious when directly transfected into the liver of a chimpanzee. Proc Natl Acad Sci USA 1997; 94(16):8738-8743) was generated as described previously for the genotype 1b(Con1) replicon luciferase cell line. The replicon construct was modified by introducing mutations were introduced into the genes encoding the NS3 helicase domain (proline replaced by leucine at position 1496) and NS5A (serine to isoleucine at position 2204) to improve replication in cell culture.
# (§2) HCV replicon luciferase assays were developed to monitor the inhibitory effects of compounds described in the disclosure on HCV genotypes 1a and 1b viral replication. HUH-7 cells, constitutively expressing the HCV replicon, were grown in Dulbecco's Modified Eagle Media (DMEM) (Gibco-BRL) containing 10% Fetal calf serum (FCS) (Sigma) and 1 mg/mL G418 (Gibco-BRL). Compounds were serially diluted 3 folds in DMSO for a twenty-point titration and subsequently transferred to sterile 384-well tissue-culture treated plates (Corning cat #3571). The plates were then seeded with 50 μL of cells at a density of 3.0×10^3 cells/well in DMEM containing 4% FCS (final DMSO concentration at 0.5%). After 3 days incubation at 37° C., cells were analyzed for Renilla Luciferase activity using the EnduRen as substrate (Promega cat #E6485). The EnduRen substrate was diluted in DMEM and then added to the plates to a final concentration of 7.5 μM. The plates were incubated for 2 hrs at 37° C. and then read immediately for 30 seconds with Viewlux Imager (PerkinElmer) using a luminescence program. To assess cytotoxicity of compounds, CC50 values were generated by multiplexing the EnduRen-containing plates with Cell Titer-Blue (Promega, cat #G8082). Cell-Titer Blue (3 μL) was added to each well and incubated for 8 hrs at 37° C. The fluorescence signal from each well was read, with an excitation wavelength at 525/10 nm and an emission wavelength of 598/10 nm, using the Viewlux Imager.
# (§3) The EC50 values for compounds were calculated by using a four-parameter logistic equation: y=A+((B−A)/(1+((C/x)^D))), where A and B denotes minimal and maximal % inhibition, respectively, C is the EC50, D is the hill slope and x represents compound concentration.
# HCV genotype 1b replicon = assay: HCV replicon luciferase reporter assay, genotype 1b (LE_1b); type: cell-based; conditions: Hepatitis C virus, 72 h, HUH-7 cells, genotype 1b (Con1) replicon, 3 days incubation, Renilla luciferase
# Excerpt: as §1, with “time. […]” for “time.”
# as §2, §3
Structure (SMILES),"EC50 (HCV genotype 1a replicon; read-out: LE_1a (EC50, range)) [nM]","EC50 (HCV genotype 1b replicon; read-out: LE_1b (EC50, range)) [nM]",EC50 (HCV genotype 1a replicon; read-out: LE_1a (EC50)) [nM],EC50 (HCV genotype 1b replicon; read-out: LE_1b (EC50)) [nM]
CC[C@@H]1C[C@H](C)CC/C=C\[C@@H]2C[C@@]2(C(=O)NS(=O)(=O)C2(C)CC2)NC(=O)[C@@H]2C[C@@H](Oc3ncc(N(CC)C(=O)c4ccccc4)c4cc(OC)ccc34)CN2C(=O)[C@H]1NC(=O)OC(C)(C)C(F)(F)F [Compound 4264],1.01 to 5,1.01 to 5,,
"CC[C@@H]1C[C@H](C)CC/C=C\[C@@H]2C[C@@]2(C(=O)NS(=O)(=O)C2(C)CC2)NC(=O)[C@@H]2C[C@@H](Oc3ncc(-c4nccs4)c4cc(OC)ccc34)CN2C(=O)[C@H]1NC(=O)OC(C)(C)C [Compound 4255, tert-butyl((2R,6S,7R,9R,13aS,14aR,16aS,Z)-7-ethyl-2-((6-methoxy-4-(thiazol-2-yl)isoquinolin-1-yl)oxy)-9-methyl-14a-(((1-methylcyclopropyl)sulfonyl)carbamoyl)-5,16-dioxo-1,2,3,5,6,7,8,9,10,11,13a,14,14a,15,16,16a-hexadecahydrocyclopropa[e]pyrrolo[1,2-a][1,4]diazacyclopentadecin-6-yl)carbamate]",1.01 to 5,0.51 to 1,,
CC[C@@H]1C[C@H](C)CC/C=C\[C@@H]2C[C@@]2(C(=O)NS(=O)(=O)C2(C)CC2)NC(=O)[C@@H]2C[C@@H](Oc3ncc(-c4cnco4)c4cc(OC)ccc34)CN2C(=O)[C@H]1NC(=O)OC(C)(C)C(F)(F)F [Compound 4291],1.01 to 5,0.51 to 1,,
"CC[C@@H]1C[C@H](C)CC/C=C\[C@@H]2C[C@@]2(C(=O)NS(=O)(=O)C2CC2)NC(=O)[C@@H]2C[C@@H](Oc3nc4ncccc4nc3C(F)(F)F)CN2C(=O)[C@H]1NC(=O)OC(C)(C)C [Compound 4330, tert-butyl((2R,6S,7R,9R,13aS,14aR,16aS,Z)-14a-((cyclopropylsulfonyl)carbamoyl)-7-ethyl-9-methyl-5,16-dioxo-2-((2-(trifluoromethyl)pyrido[2,3-b]pyrazin-3-yl)oxy)-1,2,3,5,6,7,8,9,10,11,13a,14,14a,15,16,16a-hexadecahydrocyclopropa[e]pyrrolo[1,2-a][1,4]diazacyclopentadecin-6-yl)carbamate]",5.01 to 35,5.01 to 35,,
[2H]C([2H])([2H])C1(S(=O)(=O)NC(=O)[C@@]23C[C@H]2/C=C\CC[C@@H](C)C[C@@H](CC)[C@H](NC(=O)OC(C)(C)C(C)(F)F)C(=O)N2C[C@H](Oc4nccc5cc(OC)c(F)cc45)C[C@H]2C(=O)N3)CC1 [Compound 5513],1.01 to 5,0.51 to 1,,
"C[C@@H]1CC/C=C\[C@@H]2C[C@@]2(C(=O)NS(=O)(=O)C2(C)CC2)NC(=O)[C@@H]2C[C@@H](Oc3nc4nncn4c4ccccc34)CN2C(=O)[C@@H](NC(=O)OC(C)(C)C)[C@H](C)C1 [Compound 6120, tert-butyl((2R,6S,7R,9R,13aS,14aR,16aS,Z)-2-([1,2,4]triazolo[4,3-a]quinazolin-5-yloxy)-7,9-dimethyl-14a-(((1-methylcyclopropyl)sulfonyl)carbamoyl)-5,16-dioxo-1,2,3,5,6,7,8,9,10,11,13a,14,14a,15,16,16a-hexadecahydrocyclopropa[e]pyrrolo[1,2-a][1,4]diazacyclopentadecin-6-yl)carbamate]",35 to 145,35 to 145,,
"C[C@@H]1CC/C=C\[C@@H]2C[C@@]2(C(=O)NS(=O)(=O)C2(C)CC2)NC(=O)[C@@H]2C[C@@H](Oc3nc4nccn4c4ccccc34)CN2C(=O)[C@@H](NC(=O)OC(C)(C)C)[C@H](C)C1 [Compound 6122, tert-butyl((2R,6S,7R,9R,13aS,14aR,16aS,Z)-2-(imidazo[1,2-a]quinazolin-5-yloxy)-7,9-dimethyl-14a-(((1-methylcyclopropyl)sulfonyl)carbamoyl)-5,16-dioxo-1,2,3,5,6,7,8,9,10,11,13a,14,14a,15,16,16a-hexadecahydrocyclopropa[e]pyrrolo[1,2-a][1,4]diazacyclopentadecin-6-yl)carbamate]",35 to 145,35 to 145,72,72.5
CC[C@@H]1C[C@H](C)CC/C=C\[C@@H]2C[C@@]2(C(=O)NS(=O)(=O)C2(C)CC2)NC(=O)[C@@H]2C[C@@H](Oc3nc4cc(-c5ncc(C)o5)ccc4nc3C(F)(F)F)CN2C(=O)[C@H]1NC(=O)OC(C)(C)C(F)(F)F [Compound 7003],1.01 to 5,0.51 to 1,3.7,0.8
CC[C@@H]1C[C@H](C)CC/C=C\[C@@H]2C[C@@]2(C(=O)NS(=O)(=O)C2(C)CC2)NC(=O)[C@@H]2C[C@@H](Oc3cc(-n4ccc(C(C)C)n4)nc4cc(OC)ccc34)CN2C(=O)[C@H]1NC(=O)OC(C)(C)C [Compound 4294],0.51 to 1,0.51 to 1,0.85,0.89
C[C@@H]1CC/C=C\[C@@H]2C[C@@]2(C(=O)NS(=O)(=O)C2(C)CC2)NC(=O)[C@@H]2C[C@@H](Oc3nc4nccn4c4ccccc34)CN2C(=O)[C@@H](NC(=O)OC(C)(C)C(F)(F)F)[C@H](C)C1 [Compound 6127],5.01 to 35,5.01 to 35,,
"CC[C@@H]1C[C@H](C)CC/C=C\[C@@H]2C[C@@]2(C(=O)NS(=O)(=O)C2CC2)NC(=O)[C@@H]2C[C@@H](Oc3nc4cccnc4nc3C(F)(F)F)CN2C(=O)[C@H]1NC(=O)OC(C)(C)C [Compound 4329, tert-butyl((2R,6S,7R,9R,13aS,14aR,16aS,Z)-14a-((cyclopropylsulfonyl)carbamoyl)-7-ethyl-9-methyl-5,16-dioxo-2-((3-(trifluoromethyl)pyrido[2,3-b]pyrazin-2-yl)oxy)-1,2,3,5,6,7,8,9,10,11,13a,14,14a,15,16,16a-hexadecahydrocyclopropa[e]pyrrolo[1,2-a][1,4]diazacyclopentadecin-6-yl)carbamate]",35 to 145,35 to 145,,
"CC[C@@H]1C[C@H](C)CC/C=C\[C@@H]2C[C@@]2(C(=O)NS(=O)(=O)C2(C)CC2)NC(=O)[C@@H]2C[C@@H](Oc3ncc(-c4nc(C(C)(C)C)cs4)c4cc(OC)ccc34)CN2C(=O)[C@H]1NC(=O)OC(C)(C)C [Compound 4274, tert-butyl((2R,6S,7R,9R,13aS,14aR,16aS,Z)-2-((4-(4-(tert-butyl)thiazol-2-yl)-6-methoxyisoquinolin-1-yl)oxy)-7-ethyl-9-methyl-14a-(((1-methylcyclopropyl)sulfonyl)carbamoyl)-5,16-dioxo-1,2,3,5,6,7,8,9,10,11,13a,14,14a,15,16,16a-hexadecahydrocyclopropa[e]pyrrolo[1,2-a][1,4]diazacyclopentadecin-6-yl)carbamate]",5.01 to 35,1.01 to 5,,
C[C@@H]1CC/C=C\[C@@H]2C[C@@]2(C(=O)NS(=O)(=O)C2(CF)CC2)NC(=O)[C@@H]2C[C@@H](Oc3nc4nccn4c4ccc(Cl)cc34)CN2C(=O)[C@@H](NC(=O)OC(C)(C)C(F)(F)F)[C@H](C)C1 [Compound 6131],5.01 to 35,1.01 to 5,,
